These results are taken from patent US6083969A, “1,3- and 2,3-diarylcycloalkano and cycloalkeno pyrazoles as selective inhibitors of cyclooxygenase-2 and antiinflammatory agents” (Ortho-McNeil Pharaceutical, Inc., priority 1999, dated 2000).

Assay [1] deals with T1, COX-1 (Homo sapiens, UniProt P23219).
T1 construct: Remove the platelet-rich plasma (PRP) and dilute the PRP 1:20 with 0.9% NaCl; endogenous in cells; host or cells: human platelets (platelet-rich plasma of one volunteer)
Put plainly: Human platelet thromboxane B2 production (via COX-1). The class given is cell-based. The settings on record: @3 μM (superscript b); human platelets, TXB2 production; read-out: P5: COX 1 Human Platelet % Inhibition.

For assay [2], the target named is T2, human prostaglandin H2 synthase type II (COX-2) (Homo sapiens, UniProt P35354).
T2 sequence (P35354 18-604): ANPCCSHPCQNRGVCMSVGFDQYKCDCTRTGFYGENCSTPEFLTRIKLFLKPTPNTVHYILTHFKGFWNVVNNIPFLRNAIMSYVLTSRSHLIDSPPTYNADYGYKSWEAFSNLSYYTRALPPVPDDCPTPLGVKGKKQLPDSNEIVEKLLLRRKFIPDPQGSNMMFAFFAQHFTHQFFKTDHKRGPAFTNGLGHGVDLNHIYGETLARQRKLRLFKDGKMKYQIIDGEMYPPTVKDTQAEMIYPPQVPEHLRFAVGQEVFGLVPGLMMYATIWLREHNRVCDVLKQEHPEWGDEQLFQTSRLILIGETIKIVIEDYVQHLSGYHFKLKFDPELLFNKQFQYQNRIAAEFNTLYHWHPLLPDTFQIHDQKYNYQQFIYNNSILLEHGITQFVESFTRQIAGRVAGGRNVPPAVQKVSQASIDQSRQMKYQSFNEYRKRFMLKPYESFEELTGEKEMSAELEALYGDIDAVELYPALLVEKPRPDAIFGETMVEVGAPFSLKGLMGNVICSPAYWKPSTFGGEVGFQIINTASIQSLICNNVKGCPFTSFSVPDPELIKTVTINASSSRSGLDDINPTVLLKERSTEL
Put plainly: Human prostaglandin H2 synthase type II (COX-2) whole cell assay (ECV-304 cells, PGE2 by radioimmunoassay). The settings on record: for inhibition at 3 µM: @3 μM (superscript a); for inhibition at 3 µM / inhibition at 10 µM: read-out: P1: COX 2 Whole Cell % Inhibition; for IC50: read-out: P2: COX 2 Whole Cell IC50. The class given is cell-based. Also noted: endogenous in cells; host or cells: ECV-304. Here is the method: HUMAN PROSTAGLANDIN H2 SYNTHASE TYPE II (COX-2) WHOLE CELL ASSAY (MULTIPLE CONCENTRATIONS)
Procedures 1 and 2 were used to determine the ability of the compounds to inhibit human prostaglandin H2 synthase type II (COX-2) in a whole cell assay at multiple concentrations as follows:
Approximately 28 h later, […] PMA and […] ionomycin (both final concentrations) are added to each well and incubated for an additional 16 h. Vehicle or test compounds in the amount of […] are incubated with the cells for five minutes prior to initiation of COX-2 enzyme activity by the addition of 30 μM arachidonic acid. Ten minutes later, an aliquot of the supernatant is withdrawn and the amount of PGE2 present quantitated by radioimmunoassay. Activity, reported as percent inhibition of PGE2 produced, is calculated as follows: [formula]

For assay [3], the target named is T1, COX-1. Put plainly: Human platelet thromboxane B2 production (via COX-1). The class given is cell-based. The note with it: human platelets, TXB2 production; read-out: P5: COX 1 Human Platelet IC50. As to the method:
HUMAN […] THROMBOXANE B2 PRODUCTION (via COX-1)
Procedure 5 was used to determine thromboxane B2 (TXB2) production (via COX-1) in human platelets as follows:
Draw blood from one volunteer into heparinized tubes then spin at RT for 15 to 20 minutes at 1,000 RPM. Remove the platelet-rich plasma (PRP) and dilute the PRP 1:20 with 0.9% NaCl containing 14.4U heparin/mL. Add 180 μL of the diluted PRP to each well of a 96-well plate and incubate at 37° C. for 5 minutes. Then add 20 μL vehicle (HBSS with 1% DMSO) or drug and incubate for 15 minutes at 37° C. Add 10 μl calcium ionophore and incubate 15 minutes at 37° C. Stop the reaction on slush ice for 5 minutes and assay supernatants immediately for TXB2 production via RIA or EIA.
Prepare all drugs at 10 mM in DMSO by diluting the drug in HBSS at a 1.100 ratio with 1% DMSO to 100 μM. Add 20 μl to PRP (1:10 ratio) to obtain 10 μM final concentration. The calcium ionophore is prepared by using 7 mg/mL free acid calcium ionophore in DMSO, which is warmed until the ionophore goes into solution. Just prior to use, dilute the solution 1:25 with HBSS.

Assay [4] deals with T3, human prostaglandin H2 synthase type I (COX-1) (Homo sapiens, UniProt P23219).
T3 construct: expressed in transfected cells; host or cells: COS-7 (African Green Monkey Kidney)
Kind of assay: Human prostaglandin H2 synthase type I (COX-1) homogenate assay (transfected COS-7 cells, PGE2 formation). The note with it: COS-7 homogenate; for inhibition at 10 µM: read-out: P6: COX 1 Homogenized Cell % Inhibition. The class given is biochemical. Here is the method: HUMAN PROSTAGLANDIN H2 SYNTHASE--TYPE I (COX-1) HOMOGENATE ASSAY (SINGLE CONCENTRATION)
Procedures 6 and 7 were used to assess COX-1 activity in a homogenized cell assay as follows:
(§1) COS-7 (African Green Monkey Kidney) cells are maintained in a suitable medium, and are trypsinized and plated at a density of 1×10^6 cells/well of a 6 well plate prior to assay. Approximately 24 hours later, cells are transiently transfected with a plasmid containing the human COX-1 gene using the lipofectamine method. Two days later, the cell-free homogenate is prepared by subjecting the cells to a polytron followed by centrifugation at 9,000×g. COX activity, initiated by the addition of […] arachidonic acid to the 9,000×g supernatant, is monitored in the presence of vehicle or drug. Product (PGE2) formation is quantitated by radioimmunoassay. Activity, reported as percent inhibition of PGE2 produced, is calculated as follows: [formula]

Assay [5] deals with T2, human prostaglandin H2 synthase type II (COX-2). Kind of assay: Human prostaglandin H2 synthase type II (hCOX-2) homogenate assay (transfected COS-7 cells, PGE2 formation). Also noted: expressed in transfected cells; host or cells: COS-7 (African Green Monkey Kidney). The note with it: for IC50: read-out: P4: COX 2 Homogenized Cell IC50; for inhibition at 10 µM: read-out: P3: COX 2 Homogenized Cell % Inhibition. Type of assay: biochemical. As to the method:
HUMAN PROSTAGLANDIN H2 SYNTHASE TYPE II (hCOX-2) HOMOGENATE ASSAY (SINGLE CONCENTRATION)
Procedures 3 and 4 were used to assess COX-2 activity in a homogenized cell assay as follows:
as §1, with “COX-2” for “COX-1”

Broadly, the inhibition is the percentage by which the read-out fell short of the control. A word on the IC50: it is the concentration at which inhibition is half-maximal.

T1 sequence (P23219 24-599): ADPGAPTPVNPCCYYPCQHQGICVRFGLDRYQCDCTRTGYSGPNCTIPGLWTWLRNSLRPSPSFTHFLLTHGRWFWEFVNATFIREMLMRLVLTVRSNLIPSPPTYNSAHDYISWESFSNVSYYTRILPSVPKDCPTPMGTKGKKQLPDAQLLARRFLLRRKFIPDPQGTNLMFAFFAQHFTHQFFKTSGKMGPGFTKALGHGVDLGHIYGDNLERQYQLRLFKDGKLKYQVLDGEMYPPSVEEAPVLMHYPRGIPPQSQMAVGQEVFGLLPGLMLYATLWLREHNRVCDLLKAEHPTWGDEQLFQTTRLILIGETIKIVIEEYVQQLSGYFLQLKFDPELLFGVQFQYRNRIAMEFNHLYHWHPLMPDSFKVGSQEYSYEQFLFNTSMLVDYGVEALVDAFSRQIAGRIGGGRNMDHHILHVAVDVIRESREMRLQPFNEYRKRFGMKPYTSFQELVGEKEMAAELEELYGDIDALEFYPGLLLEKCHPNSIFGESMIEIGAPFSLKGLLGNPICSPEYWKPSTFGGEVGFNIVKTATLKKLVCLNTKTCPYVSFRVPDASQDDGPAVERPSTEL
T3 sequence (P23219 24-599): as above

In the case of `CCOc1ccc2c(-c3ccc(F)cc3)nn(-c3ccc(S(C)(=O)=O)cc3)c2c1` [Example 32j], the figures for the inhibition at 3 µM (on COX-1 [1]; in assay [2]) were 35% and 87%, respectively.

With `CS(=O)(=O)c1ccc(-n2nc(-c3ccc(Cl)cc3)c3c2C=CCC3)cc1` [Example 4a, 3-(4-Chlorophenyl)-4,5-dihydro-1-(4-methylsulfonylphenyl)-1H-indazole], the IC50 (at COX-1 [3]; in assay [2]) was above 10 µM throughout. The inhibition at 10 µM in assay [4] was found to be 32%; in assay [2] it was 0%.

On to `Clc1ccc(-c2nn(-c3ccccc3)c3c2CCCCC3)cc1` [Example 12, 3-(4-Chlorophenyl)-1-phenyl-cycloheptano-[1,2-d]-pyrazole], for which the IC50 at COX-1 [3] amounted to 1 µM; in assay [2] it was 0.14 µM. Besides, the inhibition at 10 µM in assay [4] was determined as 93%.

As for `CS(=O)(=O)c1ccc(C(=O)C2CC(=O)CCC2=O)cc1` (stereo not drawn) [Example 29f], the values for the inhibition at 3 µM (on COX-1 [1]; in assay [2]) were 6% and 66%, respectively.

Regarding `COc1ccc(-n2nc(-c3ccc(F)cc3)c3c2CCCCC3)cc1` [Example 9, 3-(4-Fluorophenyl)-1-(4-methoxyphenyl)-cycloheptano-[1,2-d]-pyrazole], the IC50 on COX-1 [3] is above 10 µM; in assay [2], 2.51 µM; in assay [5] (COS-7 homogenate) it was 2.5 µM. The inhibition at 10 µM in assay [4] came out at 64%.

With `Fc1ccc(-n2nc(-c3ccc(Cl)cc3)c3ccc4[nH]c5ccc(F)cc5c4c32)cc1` [Example 32k], the inhibition at 3 µM was determined as 22% on COX-1 [1] and 29% in assay [2].

Turning to `COc1ccc(-n2nc(-c3ccc(Cl)cc3)c3c2CCCCC3)cc1` [Example 8, 3-(4-Chlorophenyl)-1-(4-methoxyphenyl)-cycloheptano-[1,2-d]-pyrazole], the inhibition at 10 µM in assay [4] came out at 25%; in assay [5] (@10 μM, COS-7 homogenate), 92%. In addition, the IC50 in assay [4] (read-out: P7: COX 1 Homogenized Cell IC50) is 5.3 µM; in assay [2], 1.56 µM; in assay [5] (COS-7 homogenate), 0.38 µM.

Turning to `Cc1ccc(-n2nc(-c3ccc(Cl)cc3)c3c2CCCCC3)cc1` [Example 11, 3-(4-Chlorophenyl)-1-(4-methylphenyl)-cycloheptano-[1,2-d]-pyrazole], the inhibition at 10 µM in assay [4] is 74%; in assay [5] it was 40%. In addition, the IC50 in assay [2] came to 0.64 µM.

For `CS(=O)(=O)c1ccc(-n2nc3c(c2-c2ccc(C(F)(F)F)cc2)CCC=C3)cc1` [Example 32c], the inhibition at 3 µM on COX-1 [1] was determined as 24%. Besides, the IC50 in assay [2] amounted to 0.61 µM.

For `CS(=O)(=O)c1ccc(-n2nc(-c3ccc(F)cc3)c3c2C=CCC3)cc1` [Example 5a, 3-(4-Fluorophenyl)-4,5-dihydro-1-(4-methylsulfonylphenyl)-1H-indazole], the IC50 (at COX-1 [3]; in assay [2]) was above 10 µM throughout. In addition, the inhibition at 10 µM came out at 32% in assay [4]; 9% in assay [2]; 6% in assay [5] (@10 μM, COS-7 homogenate).

Consider `CS(=O)(=O)c1ccc(-n2nc(-c3ccc(Cl)cc3)c3c2CCCCC3)cc1` [Example 10, 3-(4-Chlorophenyl)-1-(4-methylsulfonylphenyl)-cycloheptano-[1,2-d]-pyrazole], for which the 50% inhibitory concentration (IC50) at COX-1 [3] came out at 10 µM. For the same compound, the inhibition at 10 µM in assay [4] came out at 24%; in assay [2], 5%; in assay [5] (@10 μM, COS-7 homogenate) it was 26%.
